Values of other authors as cited in patent US8697713B2, “Pyrrolopyrimidines for pharmaceutical compositions” (Boehringer Ingelheim International GmbH, priority 2006, dated 2014).

Experiments:
[1] = molecular target: human Mnk2 protein (Homo sapiens, UniProt Q9HBH9)
[2] = tested on: phosphorylated eIF4E; details: cell culture cells transfected with Mnk2 (Mnk2a or Mnk2b) or Mnk1

human Mnk2 protein, sequence (Q9HBH9 whole entry): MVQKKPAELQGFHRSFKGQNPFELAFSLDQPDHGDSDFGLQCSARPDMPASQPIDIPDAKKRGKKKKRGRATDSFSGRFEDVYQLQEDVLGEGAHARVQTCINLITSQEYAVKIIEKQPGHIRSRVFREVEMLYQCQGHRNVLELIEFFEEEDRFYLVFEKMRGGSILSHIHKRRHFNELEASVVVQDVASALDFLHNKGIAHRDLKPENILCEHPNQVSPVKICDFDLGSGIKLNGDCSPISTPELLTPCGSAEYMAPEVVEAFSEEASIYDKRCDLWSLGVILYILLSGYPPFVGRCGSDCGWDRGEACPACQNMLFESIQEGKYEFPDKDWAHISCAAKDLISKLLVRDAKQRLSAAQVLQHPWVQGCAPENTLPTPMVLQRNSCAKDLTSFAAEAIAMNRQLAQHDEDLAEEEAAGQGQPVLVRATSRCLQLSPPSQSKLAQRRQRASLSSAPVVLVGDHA

binds the human Mnk2 protein [1]	Compound	reduction of phosphorylated eIF4E [2]
binds	COC(=O)c1ccc(O)cc1 [4-hydroxybenzoic acid methyl ester]	–
–	Nc1ncnc2n[nH]c(Nc3ccc(F)cc3)c12 [CGP57380]	strong reduction
